Laboratory results: article PMC10165273, “Itch receptor MRGPRX4 interacts with the receptor activity–modifying proteins” (The Journal of Biological Chemistry, 2023)
Like-named read-outs stand apart in the source and are kept apart here.

Target: T1, MRGPRX4 (Homo sapiens, UniProt Q96LA9)
T1 construct: expressed in transfected cells; host or cells: HEK293T
Assay: IP1 accumulation HTRF assay, MRGPRX4
Format: cell-based
Set-up: key to IP1 Basal / IP1 accumulation with YM (Figure 1c) / response to agonist, MRGPRX4 / IP1 accumulation: % IP1: unstimulated mock-transfected = 0%, fully stimulated MRGPRX4 = 100%
Conditions: for Emax: HEK-293T

T1 sequence (Q96LA9 whole entry): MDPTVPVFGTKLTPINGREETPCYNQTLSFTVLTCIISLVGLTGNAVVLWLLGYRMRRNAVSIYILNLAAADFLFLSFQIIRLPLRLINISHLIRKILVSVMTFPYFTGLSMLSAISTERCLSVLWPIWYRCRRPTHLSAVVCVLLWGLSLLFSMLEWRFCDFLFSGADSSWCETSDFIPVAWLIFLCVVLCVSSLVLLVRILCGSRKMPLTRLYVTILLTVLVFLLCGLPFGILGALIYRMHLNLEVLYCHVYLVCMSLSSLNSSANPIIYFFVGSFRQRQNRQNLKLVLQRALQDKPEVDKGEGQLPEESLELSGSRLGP

Compound: C[C@H](CCC(=O)NCCS(=O)(=O)O)[C@H]1CC[C@H]2[C@@H]3CC[C@@H]4C[C@H](O)CC[C@]4(C)[C@H]3C[C@H](O)[C@]12C [TDCA, Taurodeoxycholic acid]
- activation at 100 µM (2 h, log [agonist] (M) -4, MRGX4-transfected, individual replicates, read-out: IP1 accumulation, dose-response (Figure 1a)): 48.8%
- activation at 33.333 µM (2 h, log [agonist] (M) -4.47712, MRGX4-transfected, individual replicates, read-out: IP1 accumulation, dose-response (Figure 1a)): 32.5%
- activation at 11.111 µM (2 h, log [agonist] (M) -4.95424, MRGX4-transfected, individual replicates, read-out: IP1 accumulation, dose-response (Figure 1a)): 22.8%
- activation at 3.7037 µM (2 h, log [agonist] (M) -5.43136, MRGX4-transfected, individual replicates, read-out: IP1 accumulation, dose-response (Figure 1a)): 12.8%
- activation at 1.2346 µM (2 h, log [agonist] (M) -5.90849, MRGX4-transfected, individual replicates, read-out: IP1 accumulation, dose-response (Figure 1a)): 12.2%
- activation at 0.4115 µM (2 h, log [agonist] (M) -6.38561, MRGX4-transfected, individual replicates, read-out: IP1 accumulation, dose-response (Figure 1a)): 12.6%
- activation at 0.13717 µM (2 h, log [agonist] (M) -6.86273, MRGX4-transfected, individual replicates, read-out: IP1 accumulation, dose-response (Figure 1a)): 10.1%
- response to agonist, MRGPRX4 (Figure 4c-f, agonist 100µM, MRGPRX4 alone (reference = 100)): 100
- Emax (MRGPRX4 (Fig. 1A), HEK293T, normalized to 100 μM nateglinide, read-out: IP1 Emax): 84.2%
- Emax (MRGPRX4 (Fig. 1A), HEK293T, normalized to 100 μM nateglinide, read-out: IP1 span): 69.6%
- IP1 Basal (MRGPRX4 (Fig. 1A), HEK293T, normalized to 100 μM nateglinide): 14.54
- EC50 (MRGPRX4 (Fig. 1A), HEK293T, normalized to 100 μM nateglinide, read-out: IP1 EC50): 53.2 µM
